Consider 24 molecules from patent publication US20260200928A1, “THERAPEUTIC COMPOUNDS” (Sanofi, priority 2022, published 2026).

Where a name gives a salt, the structure may show the parent alone.

The target in the assay is T1, human IL-17A (Homo sapiens, UniProt Q16552).
T1 construct: purchased R&D Systems 7955-IL/CF
T1 sequence (Q16552 24-155): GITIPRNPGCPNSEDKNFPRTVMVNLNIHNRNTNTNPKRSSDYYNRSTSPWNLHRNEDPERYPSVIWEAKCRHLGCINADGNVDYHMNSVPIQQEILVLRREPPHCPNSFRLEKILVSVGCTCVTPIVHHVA
Put plainly: IL-17A AlphaLISA competition assay (block of IL-17A binding to its receptor IL-17RA). The following applies: mean IC50 (n≥2), block of IL-17A binding to IL-17RA. A digest of the protocol:
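Bead-based AlphaLISA competition in PBS with 0.05% Tween-20 and 0.1% BSA: compound first meets human IL-17A (7.5 nM stock) for 30 min, then IL-17RA/Fc (5 nM stock) for 90 min, all at room temperature, before acceptor/donor bead capture. IC50 fitted 4-parameter, DMSO and 4 μM reference inhibitor as controls; at least duplicate.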
In turn, `Cn1nccc1C(=O)N[C@H](C(=O)Nc1cc(CN2C[C@@H](C(F)(F)F)NC2=O)ccn1)C1CCC(F)(F)CC1` [Example 9, N-((S)-1-(4,4-difluorocyclohexyl)-2-oxo-2-((4-(((S)-2-oxo-4-(trifluoromethyl)imidazolidin-1-yl)methyl)pyridin-2-yl)amino)ethyl)-1-methyl-1H-pyrazole-5-carboxamide] registered an IC50 of 0.422 µM. That is a sub-micromolar value. The molecule `CC(C)(C)OC(=O)N1CCn2c(ccc2C(=O)N[C@H](C(=O)Nc2cc(CN3C[C@@H](C(F)(F)F)NC3=O)ccn2)C2CCC(F)(F)CC2)C1` [Example 11, Tert-butyl 6-(((S)-1-(4,4-difluorocyclohexyl)-2-oxo-2-((4-(((S)-2-oxo-4-(trifluoromethyl)imidazolidin-1-yl)methyl)pyridin-2-yl)amino)ethyl)carbamoyl)-3,4-dihydropyrrolo[1,2-a]pyrazine-2(1H)-carboxylate] came in with an IC50 of 0.359 µM. `CC(C)n1nccc1C(=O)N[C@H](C(=O)Nc1cc(CN2C[C@@H](C(F)(F)F)NC2=O)ccn1)C1CCC(F)(F)CC1` [Example 12, N-((S)-1-(4,4-difluorocyclohexyl)-2-oxo-2-((4-(((S)-2-oxo-4-(trifluoromethyl)imidazolidin-1-yl)methyl)pyridin-2-yl)amino)ethyl)-1-isopropyl-1H-pyrazole-5-carboxamide] came in with an IC50 of 0.106 µM.

`CCc1nocc1C(=O)N[C@H](C(=O)Nc1cc(CN2C[C@@H](C(F)(F)F)NC2=O)ccn1)C1CCC(F)(F)CC1` [Example 13, N-((S)-1-(4,4-difluorocyclohexyl)-2-oxo-2-((4-(((S)-2-oxo-4-(trifluoromethyl)imidazolidin-1-yl)methyl)pyridin-2-yl)amino)ethyl)-3-ethylisoxazole-4-carboxamide] displayed an IC50 of 0.122 µM. Molecule `O=C(N[C@H](C(=O)Nc1cc(CN2C[C@@H](C(F)(F)F)NC2=O)ccn1)C1CCC(F)(F)CC1)c1ccnn1C1CC1` [Example 14, 1-cyclopropyl-N-((S)-1-(4,4-difluorocyclohexyl)-2-oxo-2-((4-(((S)-2-oxo-4-(trifluoromethyl)imidazolidin-1-yl)methyl)pyridin-2-yl)amino)ethyl)-1H-pyrazole-5-carboxamide] yielded an IC50 of 0.333 µM. This IC50 lies about 2.7-fold higher than the previous one. For `Cn1nccc1C(=O)N[C@H](C(=O)Nc1cc(CN2C[C@@H](C(F)(F)F)NC2=O)ccn1)C(C1CC1)C1CC1` [Example 15, N-((S)-1,1-dicyclopropyl-3-oxo-3-((4-(((S)-2-oxo-4-(trifluoromethyl)imidazolidin-1-yl)methyl)pyridin-2-yl)amino)propan-2-yl)-1-methyl-1H-pyrazole-5-carboxamide] the value was 0.201 µM. In turn, `O=C(N[C@H](C(=O)Nc1cc(CN2C[C@@H](C(F)(F)F)NC2=O)ccn1)C(C1CC1)C1CC1)c1nonc1C1CC1` [Example 16, 4-cyclopropyl-N-((S)-1,1-dicyclopropyl-3-oxo-3-((4-(((S)-2-oxo-4-(trifluoromethyl)imidazolidin-1-yl)methyl)pyridin-2-yl)amino)propan-2-yl)-1,2,5-oxadiazole-3-carboxamide] displayed an IC50 of 0.157 µM. `CC(C)n1nccc1C(=O)N[C@H](C(=O)Nc1cc(CN2C[C@@H](C(F)(F)F)NC2=O)ccn1)C(C1CC1)C1CC1` [Example 17, N-((S)-1,1-dicyclopropyl-3-oxo-3-((4-(((S)-2-oxo-4-(trifluoromethyl)imidazolidin-1-yl)methyl)pyridin-2-yl)amino)propan-2-yl)-1-isopropyl-1H-pyrazole-5-carboxamide] displayed an IC50 of 0.092 µM. For `Cc1nonc1C(=O)N[C@H](C(=O)Nc1cc(CN2C[C@@H](C(F)(F)F)NC2=O)ccn1)C(C1CC1)C1CC1` [Example 18, N-((S)-1,1-dicyclopropyl-3-oxo-3-((4-(((S)-2-oxo-4-(trifluoromethyl)imidazolidin-1-yl)methyl)pyridin-2-yl)amino)propan-2-yl)-4-methyl-1,2,5-oxadiazole-3-carboxamide] the value was 0.448 µM; for `CC(C)(C)OC(=O)NCC1(c2nocc2C(=O)N[C@H](C(=O)Nc2cc(CN3C[C@@H](C(F)(F)F)NC3=O)ccn2)C2CCC(F)(F)CC2)CC1` [Example 19, Tert-butyl ((1-(4-(((S)-1-(4,4-difluorocyclohexyl)-2-oxo-2-((4-(((S)-2-oxo-4-(trifluoromethyl)imidazolidin-1-yl)methyl)pyridin-2-yl)amino)ethyl)-carbamoyl)isoxazol-3-yl)cyclopropyl)methyl)carbamate], 0.843 µM.

With `O=C(N[C@H](C(=O)Nc1cc(CN2C[C@@H](C(F)(F)F)NC2=O)ccn1)C1CCC(F)(F)CC1)c1conc1C1CC1` [Example 20, 3-cyclopropyl-N-((S)-1-(4,4-difluorocyclohexyl)-2-oxo-2-((4-(((S)-2-oxo-4-(trifluoromethyl)-imidazolidin-1-yl)methyl)-pyridin-2-yl)amino)ethyl)-isoxazole-4-carboxamide], the IC50 worked out at 0.183 µM.

For `CC(C)c1nocc1C(=O)N[C@H](C(=O)Nc1cc(CN2C[C@@H](C(F)(F)F)NC2=O)ccn1)C1CCC(F)(F)CC1` [Example 21, N-((S)-1-(4,4-difluorocyclohexyl)-2-oxo-2-((4-(((S)-2-oxo-4-(trifluoro-methyl)imidazolidin-1-yl)methyl)pyridin-2-yl)amino)ethyl)-3-isopropyl-isoxazole-4-carboxamide], the IC50 amounted to 0.138 µM. Molecule `NCC1(c2nocc2C(=O)N[C@H](C(=O)Nc2cc(CN3C[C@@H](C(F)(F)F)NC3=O)ccn2)C2CCC(F)(F)CC2)CC1` [Example 22, 3-(1-(Aminomethyl)cyclopropyl)-N—((S)-1-(4,4-difluorocyclohexyl)-2-oxo-2-((4-(((S)-2-oxo-4-(trifluoromethyl)imidazolidin-1-yl)methyl)pyridin-2-yl)amino)ethyl)isoxazole-4-carboxamide HCl salt] came in with an IC50 of 9.23 µM. In turn, `CN1C(=O)N(Cc2ccnc(NC(=O)[C@@H](NC(=O)OC(C)(C)C)[C@H]3CC[C@H](C)CC3)c2)CC12CCC2` [Example 23, Tert-butyl ((S)-2-((4-((5-methyl-6-oxo-5,7-diazaspiro[3.4]octan-7-yl)methyl)pyridin-2-yl)amino)-1-((1r,4S)-4-methylcyclohexyl)-2-oxoethyl)carbamate] yielded an IC50 of 6.95 µM. For `CC1(C)CN(Cc2ccnc(NC(=O)[C@@H](NC(=O)OC(C)(C)C)[C@H]3CC[C@H](C)CC3)c2)C(=O)N1` [Example 24, Tert-butyl ((S)-2-((4-((4,4-dimethyl-2-oxoimidazolidin-1-yl)methyl)pyridin-2-yl)amino)-1-((1r,4S)-4-methylcyclohexyl)-2-oxoethyl)carbamate] the value was 1.05 µM.

Regarding `CC1(C)CN(Cc2ccnc(NC(=O)[C@@H](NC(=O)c3nonc3C3CC3)[C@H]3CC[C@H](C)CC3)c2)C(=O)N1` [Example 25, 4-Cyclopropyl-N—((S)-2-((4-((4,4-dimethyl-2-oxoimidazolidin-1-yl)methyl)pyridin-2-yl)amino)-1-((1r,4S)-4-methylcyclohexyl)-2-oxoethyl)-1,2,5-oxadiazole-3-carboxamide], the IC50 stood at 0.105 µM. For `CC(C)(C)OC(=O)N[C@H](C(=O)Nc1cc(COC(=O)NCC(F)(F)F)ccn1)[C@H]1CC[C@H](C)CC1` [Example 26, Tert-butyl ((S)-1-((1r,4S)-4-methylcyclohexyl)-2-oxo-2-((4-((((2,2,2-trifluoroethyl)carbamoyl)oxy)methyl)pyridin-2-yl)amino)ethyl)carbamate] the value was 10.4 µM. On to `CC(C)(C)OC(=O)N[C@H](C(=O)Nc1cc(CN2C(=O)NC(C)(C)C2=O)ccn1)C1CCC(F)(F)CC1` [Example 27, Tert-butyl (S)-(1-(4,4-difluorocyclohexyl)-2-((4-((4,4-dimethyl-2,5-dioxoimidazolidin-1-yl)methyl)pyridin-2-yl)amino)-2-oxoethyl)carbamate], for which the IC50 came to 14.9 µM. This IC50 and that of the molecule before are within 1.5-fold of each other. `CC(C)(C)OC(=O)N[C@H](C(=O)Nc1cc(CN2C(=O)CNC2=O)ccn1)C1CCC(F)(F)CC1` [Example 28, Tert-butyl (S)-(1-(4,4-difluorocyclohexyl)-2-((4-((2,5-dioxoimidazolidin-1-yl)methyl)pyridin-2-yl)amino)-2-oxoethyl)carbamate] returned an IC50 of 8.4 µM.

With `C[C@@H]1CNC(=O)N1Cc1ccnc(NC(=O)[C@@H](NC(=O)OC(C)(C)C)[C@H]2CC[C@H](C)CC2)c1` [Example 29, Tert-butyl ((S)-2-((4-(((R)-5-methyl-2-oxoimidazolidin-1-yl)methyl)pyridin-2-yl)amino)-1-((1r,4S)-4-methylcyclohexyl)-2-oxoethyl)carbamate], the IC50 was found to be 0.428 µM. For `C[C@@H]1CN(Cc2ccnc(NC(=O)[C@@H](NC(=O)OC(C)(C)C)[C@H]3CC[C@H](C)CC3)c2)C(=O)N1` [Example 30], the IC50 worked out at 0.479 µM.

Turning to `Cn1nccc1C(=O)N[C@H](C(=O)Nc1cc(CC(=O)NCCC(F)(F)F)ccn1)C(C1CC1)C1CC1` [Example 31, (S)—N-(1,1-dicyclopropyl-3-oxo-3-((4-(2-oxo-2-((3,3,3-trifluoro-propyl)amino)ethyl)pyridin-2-yl)amino)propan-2-yl)-1-methyl-1H-pyrazole-5-carboxamide], the IC50 was 5.06 µM.

On to `Cn1nccc1C(=O)N[C@H](C(=O)Nc1cc(CNC(=O)CCC(F)(F)F)ccn1)C(C1CC1)C1CC1` [Example 32, (S)—N-(1,1-dicyclopropyl-3-oxo-3-((4-((4,4,4-trifluorobutanamido)-methyl)pyridin-2-yl)amino)propan-2-yl)-1-methyl-1H-pyrazole-5-carboxamide], for which the IC50 came out at 5.6 µM.

As for `C[C@@H]1CN(Cc2ccnc(NC(=O)[C@@H](NC(=O)c3ccnn3C)C(C3CC3)C3CC3)c2)C(=O)N1` [Example 33, N—((S)-1,1-dicyclopropyl-3-((4-(((R)-4-methyl-2-oxoimidazolidin-1-yl)methyl)pyridin-2-yl)amino)-3-oxopropan-2-yl)-1-methyl-1H-pyrazole-5-carboxamide], the 50% inhibitory concentration (IC50) was found to be 1.01 µM.
